Reference: patent US20240391862A1, “(1,4,5-TRISUBSTITUTED-1H-PYRAZOL-3-YL)OXY-2-ALKOXY ALKYL ACIDS AND THEIR DERIVATIVES, THEIR SALTS AND THEIR USE AS HERBICIDAL AGENTS” (Bayer AKtiengesellschaft, priority 2021, published 2024)

Tests used:
Assay in all cases: Post-emergence herbicidal effect, greenhouse pot test
ECHCG = format: in vivo, Echinochloa crus-galli; details: for pest or weed control at 20 g/ha / pest or weed control at 80 g/ha / pest or weed control at 320 g/ha: Echinochloa crus-galli, 504 h; for pest or weed control at 20 g/ha: visual rating about 3 weeks after treatment, read-out: Post-emergence effect against ECHCG; for pest or weed control at 80 g/ha / pest or weed control at 320 g/ha: read-out: Post-emergence effect against ECHCG in %
From the text: (§1) • ALOMY: Alopecurus myosuroides SETVI: Setaria viridis • AVEFA: Avena fatua POLCO: Fallopia convolvulus • AMARE: Amaranthus retroflexus ECHCG: Echinochloa crus-galli • LOLRJ: Lolium rigidum STEME: Stellaria media • VERPE: Veronica persica MATIN: Tripleurospermum inodorum • DIGSA: Digitaria sanguinalis ABUTH: Abutylon threophrasti • TRZAS: Triticum aestivum VIOTR: Viola tricolor • BRSNW: Brassica napus ZEAMX: Zea mays • PHBPU: Ipomoea purpurea GLXMA: Glycine max • ORYSA: Oryza sativa HORMU: Hordeum murinum
(§2) Seeds of monocotyledonous and dicotyledonous weeds and crop plants are placed in sandy loam in plastic or organic planting pots, covered with soil and cultivated in a greenhouse under controlled growth conditions. 2 to 3 weeks after sowing, the trial plants are treated at the one-leaf stage. The compounds of the invention, formulated in the form of wettable powders (WP) or as emulsion concentrates (EC), are then sprayed onto the green parts of the plants as aqueous suspension or emulsion with addition of 0.5% additive at a water application rate of 600 l/ha (converted). After the test plants have been kept in the greenhouse under optimum growth conditions for about 3 weeks, the activity of the preparations is rated visually in comparison to untreated controls. For example, 100% activity=the plants have died, 0% activity=like control plants.
(§3) Tables 20a to 38c below show the effects/crop compatibilities of selected compounds of the general formula (I) on various harmful plants at an application rate corresponding to 20 to 320 g/ha, which were obtained by the trial procedure specified above.

LOLRI = format: in vivo, Lolium rigidum; details: Lolium rigidum, 504 h, read-out: Post-emergence effect against LOLRI in %
From the text: as §1, §2, §3

POLCO = format: in vivo, Fallopia convolvulus; details: Fallopia convolvulus, 504 h, read-out: Post-emergence effect against POLCO in %
From the text: as §1, §2, §3

AMARE = format: in vivo, Amaranthus retroflexus; details: visual rating about 3 weeks after treatment; for pest or weed control at 80 g/ha / pest or weed control at 320 g/ha: Amaranthus retroflexus, 504 h, read-out: Post-emergence effect against AMARE
From the text: as §1, §2, §3

ALOMY = format: in vivo, Alopecurus myosuroides; details: visual rating about 3 weeks after treatment; for pest or weed control at 80 g/ha / pest or weed control at 320 g/ha: Alopecurus myosuroides, 504 h, read-out: Post-emergence effect against ALOMY
From the text: as §1, §2, §3

PHBPU = format: in vivo, Ipomoea purpurea; details: for pest or weed control at 80 g/ha / pest or weed control at 20 g/ha / pest or weed control at 320 g/ha: Ipomoea purpurea, 504 h, read-out: Post-emergence effect against PHBPU in %
From the text: as §1, §2, §3

AVEFA = format: in vivo, Avena fatua; details: visual rating about 3 weeks after treatment; for pest or weed control at 80 g/ha / pest or weed control at 320 g/ha: Avena fatua, 504 h, read-out: Post-emergence effect against AVEFA
From the text: as §1, §2, §3

SETVI = format: in vivo, Setaria viridis; details: for pest or weed control at 80 g/ha / pest or weed control at 320 g/ha / pest or weed control at 20 g/ha: Setaria viridis, 504 h, read-out: Post-emergence effect against SETVI in %
From the text: as §1, §2, §3

VIOTR = format: in vivo, Viola tricolor; details: for pest or weed control at 20 g/ha / pest or weed control at 80 g/ha / pest or weed control at 320 g/ha: Viola tricolor, 504 h, read-out: Post-emergence effect against VIOTR in %
From the text: as §1, §2, §3

MATIN = format: in vivo, Tripleurospermum inodorum; details: for pest or weed control at 20 g/ha / pest or weed control at 80 g/ha / pest or weed control at 320 g/ha: Tripleurospermum inodorum, 504 h, read-out: Post-emergence effect against MATIN in %
From the text: as §1, §2, §3

DIGSA = format: in vivo, Digitaria sanguinalis; details: visual rating about 3 weeks after treatment; for pest or weed control at 80 g/ha / pest or weed control at 320 g/ha: Digitaria sanguinalis, 504 h, read-out: Post-emergence effect against DIGSA
From the text: as §1, §2, §3

VERPE = format: in vivo, Veronica persica; details: for pest or weed control at 20 g/ha / pest or weed control at 80 g/ha / pest or weed control at 320 g/ha: Veronica persica, 504 h, read-out: Post-emergence effect against VERPE in %
From the text: as §1, §2, §3

ABUTH = format: in vivo, Abutilon theophrasti; details: Abutilon theophrasti, 504 h, visual rating about 3 weeks after treatment, read-out: Post-emergence effect against ABUTH
From the text: as §1, §2, §3

Structure (SMILES)	pest or weed control at 80 g/ha (ECHCG) [%]	pest or weed control at 320 g/ha (LOLRI) [%]	pest or weed control at 320 g/ha (POLCO) [%]	pest or weed control at 80 g/ha (AMARE) [%]	pest or weed control at 80 g/ha (PHBPU) [%]	pest or weed control at 80 g/ha (AVEFA) [%]	pest or weed control at 80 g/ha (SETVI) [%]	pest or weed control at 20 g/ha (VIOTR) [%]	pest or weed control at 80 g/ha (VIOTR) [%]	pest or weed control at 20 g/ha (MATIN) [%]	pest or weed control at 80 g/ha (MATIN) [%]	pest or weed control at 20 g/ha (VERPE) [%]	pest or weed control at 320 g/ha (ECHCG; 320 g/ha) [%]	pest or weed control at 320 g/ha (AMARE; 320 g/ha) [%]	pest or weed control at 320 g/ha (ALOMY; 320 g/ha) [%]	pest or weed control at 320 g/ha (PHBPU; 320 g/ha) [%]	pest or weed control at 320 g/ha (AVEFA; 320 g/ha) [%]	pest or weed control at 320 g/ha (SETVI; 320 g/ha) [%]	pest or weed control at 320 g/ha (VIOTR; 320 g/ha) [%]	pest or weed control at 320 g/ha (MATIN; 320 g/ha) [%]	also measured
CCOC(=O)C(OC)Oc1nn(-c2ccccc2F)c(-c2ccc(F)nc2)c1Br (stereo not shown) [Example I-23]	80	90	80	80	80	80	80	80	80	80	80	80									Post-emergence effect against ECHCG in % (ECHCG; 320 g/ha): 90%; pest or weed control at 20 g/ha (ECHCG): 80%; Post-emergence effect against AMARE (AMARE; 320 g/ha): 90%; Post-emergence effect against ALOMY (ALOMY; 320 g/ha): 90%; pest or weed control at 80 g/ha (ALOMY): 90%; Post-emergence effect against PHBPU in % (PHBPU; 320 g/ha): 90%; Post-emergence effect against AVEFA (AVEFA; 320 g/ha): 80%; Post-emergence effect against SETVI in % (SETVI; 320 g/ha): 90%; Post-emergence effect against VIOTR in % (VIOTR; 320 g/ha): 80%; Post-emergence effect against MATIN in % (MATIN; 320 g/ha): 90%; Post-emergence effect against DIGSA (DIGSA; 320 g/ha): 90%; pest or weed control at 80 g/ha (DIGSA): 90%; Post-emergence effect against VERPE in % (VERPE; 80 g/ha): 90%; Post-emergence effect against VERPE in % (VERPE; 320 g/ha): 90%
COC(=O)C(OC)Oc1nn(-c2cc(F)ccc2F)c(-c2cncc(F)c2)c1Br (stereo not shown) [Example I-29]	80	90	80	90	80	90	90	80	90	80	90		90	90	90	90	90	90	90	90	pest or weed control at 20 g/ha (PHBPU): 80%; pest or weed control at 80 g/ha (ABUTH): 80%; pest or weed control at 320 g/ha (ABUTH): 90%; pest or weed control at 320 g/ha (DIGSA; 320 g/ha): 80%; pest or weed control at 80 g/ha (VERPE; 80 g/ha): 90%; pest or weed control at 320 g/ha (VERPE; 320 g/ha): 90%
COC(=O)C(OC)Oc1nn(-c2ccccc2)c(-c2ccc(F)nc2)c1Br (stereo not shown) [Example I-30]	90	90	80	80	80	90	90	80	90		80	80	90	80	90	90	90	90	90	90	pest or weed control at 20 g/ha (ECHCG): 80%; pest or weed control at 80 g/ha (POLCO): 80%; pest or weed control at 20 g/ha (SETVI): 80%; pest or weed control at 80 g/ha (ABUTH): 80%; pest or weed control at 320 g/ha (ABUTH): 90%; pest or weed control at 80 g/ha (DIGSA): 90%; pest or weed control at 320 g/ha (DIGSA; 320 g/ha): 90%; pest or weed control at 80 g/ha (VERPE; 80 g/ha): 80%; pest or weed control at 320 g/ha (VERPE; 320 g/ha): 90%
CCOC(=O)C(OC)Oc1nn(-c2cc(F)ccc2F)c(-c2cncc(F)c2)c1C1CC1 (stereo not shown) [Example I-37]	100	100	90	90	90	80	90	80	90	80	90	90	100	90	100	90	90	90	90	90	pest or weed control at 80 g/ha (LOLRI): 90%; pest or weed control at 80 g/ha (POLCO): 90%; pest or weed control at 80 g/ha (ALOMY): 100%; pest or weed control at 20 g/ha (PHBPU): 90%; pest or weed control at 20 g/ha (ABUTH; 20 g/ha): 80%; pest or weed control at 80 g/ha (ABUTH): 90%; pest or weed control at 320 g/ha (ABUTH): 90%; pest or weed control at 320 g/ha (DIGSA; 320 g/ha): 90%; pest or weed control at 80 g/ha (VERPE; 80 g/ha): 100%; pest or weed control at 320 g/ha (VERPE; 320 g/ha): 100%
COC(=O)C(OC)Oc1nn(-c2cc(F)ccc2F)c(-c2cncc(F)c2)c1C1CC1 (stereo not shown) [Example I-111]	90	90	80	80	90	90	80		80	80	80	80	90	80	90	90	90	80	80	80	pest or weed control at 20 g/ha (ECHCG): 80%; pest or weed control at 80 g/ha (LOLRI): 90%; pest or weed control at 80 g/ha (POLCO): 80%; pest or weed control at 80 g/ha (ALOMY): 80%; pest or weed control at 20 g/ha (PHBPU): 80%; pest or weed control at 20 g/ha (SETVI): 80%; pest or weed control at 80 g/ha (ABUTH): 80%; pest or weed control at 320 g/ha (ABUTH): 90%; pest or weed control at 320 g/ha (DIGSA; 320 g/ha): 80%; pest or weed control at 80 g/ha (VERPE; 80 g/ha): 80%; pest or weed control at 320 g/ha (VERPE; 320 g/ha): 80%
